Data as given in patent US5670514A, “Compositions for inhibiting bone loss” (priority 1996, dated 1997).

Target: T1, Human Type I Steroid 5α-Reductase (Homo sapiens, UniProt P18405)
T1 construct: Preparation of Type I 5α-Reductase from Human Scalp; from tissue; host or cells: human scalp skin (punch biopsies from hair transplant graft recipient sites), 100,000 x g pellet of homogenate
T1 sequence (P18405 1-259): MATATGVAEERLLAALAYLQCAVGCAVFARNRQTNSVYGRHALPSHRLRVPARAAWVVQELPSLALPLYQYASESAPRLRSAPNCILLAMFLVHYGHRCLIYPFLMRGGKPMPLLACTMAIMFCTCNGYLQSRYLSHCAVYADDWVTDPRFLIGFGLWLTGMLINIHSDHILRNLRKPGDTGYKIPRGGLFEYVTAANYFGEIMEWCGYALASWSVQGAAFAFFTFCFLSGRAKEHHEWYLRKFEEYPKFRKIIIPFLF
Experiment: Human Type I Steroid 5α-Reductase homogenate assay (human scalp enzyme; conversion of [3H]-testosterone to [3H]-5α-dihydrotestosterone and other 5α-reduced metabolites)
Format: biochemical
Conditions: 0.3 μM; compared to control reaction mixtures; 50 nM [3H]-testosterone, pH 7.5, 25°, 180 min
Source text: Methodology of Human Type I Steroid 5α-Reductase Assays
The subcutaneous tissue was cut away and discarded. The skin was frozen with liquid nitrogen and pulverized to powder. […] The homogenization procedure consisted of four 15 second pulses. Connective tissue was cleared from the probe with forceps between pulses. […] The pellet was resuspended by homogenization with a Dounce homogenizer using the same buffer solution. An aliquot was taken for protein determination by the Lowry method, Lowry, et al., Protein Measurement with the Folin Phenol Reagent, J. Biol. Chem., 193, 265-75 (1951). Aliquots of the enzyme preparation were stored at -80° until use.
The reaction was initiated by the addition of 0.5 mg of Type I 5α-reductase. The reaction mixture was incubated at 25° for 180 min, and terminated by the addition of 1 mL ice-cold stopping solution. […] The samples were prepared for high performance liquid chromatography by solid phase extraction. […] The reaction mixtures were then applied to the columns. The columns were subsequently washed with 5 mL of acetone:water (1:4), followed by 0.3 mL of methanol. The samples were then eluted with 3 mL of methanol and collected in 20 mL scintillation vials. Three mL of water was then added to each scintillation vial. […] The column temperature was maintained at 35° and the flow rate was 1.5 mL/min.

`CN1C(=O)CC[C@]2(C)c3ccc(-c4cccc(NC(=O)C(C)(C)C)c4)cc3CC[C@@H]12` [Example 34, (+)-(4aR)-(10bR)-4-methyl-8-(3-t-butylcarboxamidophenyl)-10b-methyl-1,2,3,4,4a,5,6,10b-octahydrobenzo[f]quinolin-3-one] was tested. Which “percent inhibition of Type I 5AR” value did it give?
Its value is 13%.

With `CN1C(=O)CC[C@]2(C)c3ccc(-c4cccc(NC(=O)C5CCN(Cc6ccccc6)CC5)c4)cc3CC[C@@H]12` [Example 209, (+)-(4aR)-(10bR)-4-methyl-8-(3-[1-benzyl-4-piperidinyl-carboxamido]phenyl)-10b-methyl-1,2,3,4,4a,5,6,10b-octahydrobenzo[f]quinolin-3-one] as the molecule, how does the “percent inhibition of Type I 5AR” value read?
The value was 24%.

“(+)-(4aR)-(10bR)-4-methyl-8-benzyloxycarbonyl-10b-methyl-1,2,3,4,4a,5,6,10b-octahydrobenzo[f]quinolin-3-one [Example 144]” was tested. Which “percent inhibition of Type I 5AR” value did it give?
The value was 90%.

With `CN1C(=O)CC[C@]2(C)c3ccc(-c4ccc(-c5ccc(NC(=O)C(C)(C)C)s5)cc4)cc3CC[C@@H]12` [Example 222, (+)-(4aR)-(10bR)-4-methyl-8-(4-[(2-t-butylcarbonylamino]-5-thienyl]phenyl)-10b-methyl-1,2,3,4,4a,5,6,10b-octahydro-benzo[f]quinolin-3-one] as the molecule, how does the “percent inhibition of Type I 5AR” value read?
Its value is 86%.
